Experimental data taken from publication PMC11647725, “Discovery of 4-(5-Membered)Heteroarylether-6-methylpicolinamide Negative Allosteric Modulators of Metabotropic Glutamate Receptor Subtype 5” (ACS Medicinal Chemistry Letters, 2024).

Columns and labels:
[1] = biological target: Serotonin (5-Hydroxytryptamine) 5-HT2B (Homo sapiens, UniProt P41595); assay: Lead Profiling Screen, Eurofins Panlabs; format: binding; conditions: Serotonin 5-HT2B, hum, read-out: % inh at 10 μM
[2] = In vivo rat pharmacokinetics; set-up: species or system Sprague–Dawley rat
CYP 2C9 = biological target: T1, CYP 2C9 (Homo sapiens, UniProt P11712); assay: P450 inhibition in pooled human liver microsomes; format: in vitro ADME; conditions: pooled HLM, NADPH, CYP-specific probe substrates; listed as VU6043653
T1 construct: from tissue; host or cells: pooled human liver microsomes (per the earlier reading)

Dopamine D1 = Dopamine D1 (Homo sapiens, UniProt P21728); assay: Lead Profiling Screen, Eurofins Panlabs; format: binding; conditions: Dopamine D1, hum, read-out: % inh at 10 μM
Source text: (§1) Nonetheless, as a non-aryl/heterobiaryl acetylene mGlu5 NAM with an encouraging in vivo rodent PK profile, we wished to further assess VU6043653 as a novel chemotype. Therefore, we compared metabolites in multiple species to better understand species differences in clearance and metabolism. […] Consistent with the high plasma clearance observed in dogs, high turnover was observed more so in dog hepatocytes than any other species tested (see the Supporting Information for additional details and results). To further evaluate our novel chemotype, the off-target and safety/toxicity profiles for this compound were further investigated.
(§2) Table S2. Lead Profiling Screen – Eurofins Panlabs for VU6043653.

Histamine H2 = Histamine H2 (Homo sapiens, UniProt P25021); assay: Lead Profiling Screen, Eurofins Panlabs; format: binding; conditions: Histamine H2, hum, read-out: % inh at 10 μM
Source text: as §1, §2

Cannabinoid CB1 = Cannabinoid CB1 (Homo sapiens, UniProt P21554); assay: Lead Profiling Screen, Eurofins Panlabs; format: binding; conditions: Cannabinoid CB1, hum, read-out: % inh at 10 μM
Source text: as §1, §2

Dopamine D4.4 = Dopamine D4.4 (Homo sapiens, UniProt P21917); assay: Lead Profiling Screen, Eurofins Panlabs; format: binding; conditions: Dopamine D4.4, hum, read-out: % inh at 10 μM
Source text: as §1, §2

Adrenergic β2 = Adrenergic β2 (Homo sapiens, UniProt P07550); assay: Lead Profiling Screen, Eurofins Panlabs; format: binding; conditions: Adrenergic β2, hum, read-out: % inh at 10 μM
Source text: as §1, §2

Adenosine A1 = Adenosine A1 (Homo sapiens, UniProt P30542); assay: Lead Profiling Screen, Eurofins Panlabs; format: binding; conditions: Adenosine A1, hum, read-out: % inh at 10 μM
Source text: as §1, §2

Adrenergic β1 = Adrenergic β1 (Homo sapiens, UniProt P08588); assay: Lead Profiling Screen, Eurofins Panlabs; format: binding; conditions: Adrenergic β1, hum, read-out: % inh at 10 μM
Source text: as §1, §2

GABAB1A = GABAB1A (Homo sapiens, UniProt Q9UBS5); assay: Lead Profiling Screen, Eurofins Panlabs; format: binding; conditions: hum, read-out: % inh at 10 μM
Source text: as §1, §2

Dopamine D2S = Dopamine D2S (Homo sapiens, UniProt P14416); assay: Lead Profiling Screen, Eurofins Panlabs; format: binding; conditions: hum, read-out: % inh at 10 μM
Source text: as §1, §2

Bradykinin B1 = Bradykinin B1 (Homo sapiens, UniProt P46663); assay: Lead Profiling Screen, Eurofins Panlabs; format: binding; conditions: Bradykinin B1, hum, read-out: % inh at 10 μM
Source text: as §1, §2

Estrogen Erα = Estrogen Erα (Homo sapiens, UniProt P03372); assay: Lead Profiling Screen, Eurofins Panlabs; format: binding; conditions: hum, read-out: % inh at 10 μM
Source text: as §1, §2

Histamine H1 = Histamine H1 (Homo sapiens, UniProt P35367); assay: Lead Profiling Screen, Eurofins Panlabs; format: binding; conditions: Histamine H1, hum, read-out: % inh at 10 μM
Source text: as §1, §2

Histamine H3 = Histamine H3 (Homo sapiens, UniProt Q9Y5N1); assay: Lead Profiling Screen, Eurofins Panlabs; format: binding; conditions: Histamine H3, hum, read-out: % inh at 10 μM
Source text: as §1, §2

Endothelin ETB = Endothelin ETB (Homo sapiens, UniProt P24530); assay: Lead Profiling Screen, Eurofins Panlabs; format: binding; conditions: hum, read-out: % inh at 10 μM
Source text: as §1, §2

Dopamine D3 = Dopamine D3 (Homo sapiens, UniProt P35462); assay: Lead Profiling Screen, Eurofins Panlabs; format: binding; conditions: Dopamine D3, hum, read-out: % inh at 10 μM
Source text: as §1, §2

T1 sequence (P11712 whole entry): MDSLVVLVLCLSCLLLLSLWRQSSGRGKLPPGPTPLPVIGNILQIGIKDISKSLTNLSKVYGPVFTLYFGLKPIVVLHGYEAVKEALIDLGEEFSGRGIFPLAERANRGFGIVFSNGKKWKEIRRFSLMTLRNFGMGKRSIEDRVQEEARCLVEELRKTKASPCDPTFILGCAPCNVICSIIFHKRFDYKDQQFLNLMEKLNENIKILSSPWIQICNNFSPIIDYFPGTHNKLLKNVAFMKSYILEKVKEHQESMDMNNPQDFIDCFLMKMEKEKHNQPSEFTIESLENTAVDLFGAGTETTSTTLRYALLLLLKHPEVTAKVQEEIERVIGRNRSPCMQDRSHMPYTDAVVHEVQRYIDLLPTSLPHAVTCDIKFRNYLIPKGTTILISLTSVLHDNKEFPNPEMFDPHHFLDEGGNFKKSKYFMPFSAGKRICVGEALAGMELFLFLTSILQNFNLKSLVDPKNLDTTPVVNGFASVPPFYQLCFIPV
Chain of Dopamine D1 (P21728 whole entry): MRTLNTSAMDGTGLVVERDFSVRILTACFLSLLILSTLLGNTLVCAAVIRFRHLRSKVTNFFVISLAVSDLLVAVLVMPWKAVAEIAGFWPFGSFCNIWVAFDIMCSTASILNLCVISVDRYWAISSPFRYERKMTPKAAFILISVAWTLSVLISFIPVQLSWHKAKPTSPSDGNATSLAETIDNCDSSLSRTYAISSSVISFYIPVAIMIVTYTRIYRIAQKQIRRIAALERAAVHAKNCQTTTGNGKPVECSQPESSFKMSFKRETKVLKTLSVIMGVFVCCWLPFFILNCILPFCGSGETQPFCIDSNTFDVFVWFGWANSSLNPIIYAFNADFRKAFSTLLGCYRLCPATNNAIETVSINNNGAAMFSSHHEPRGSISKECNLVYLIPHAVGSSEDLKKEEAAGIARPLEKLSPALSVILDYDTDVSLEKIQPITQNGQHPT
Chain of Adrenergic β2 (P07550 whole entry): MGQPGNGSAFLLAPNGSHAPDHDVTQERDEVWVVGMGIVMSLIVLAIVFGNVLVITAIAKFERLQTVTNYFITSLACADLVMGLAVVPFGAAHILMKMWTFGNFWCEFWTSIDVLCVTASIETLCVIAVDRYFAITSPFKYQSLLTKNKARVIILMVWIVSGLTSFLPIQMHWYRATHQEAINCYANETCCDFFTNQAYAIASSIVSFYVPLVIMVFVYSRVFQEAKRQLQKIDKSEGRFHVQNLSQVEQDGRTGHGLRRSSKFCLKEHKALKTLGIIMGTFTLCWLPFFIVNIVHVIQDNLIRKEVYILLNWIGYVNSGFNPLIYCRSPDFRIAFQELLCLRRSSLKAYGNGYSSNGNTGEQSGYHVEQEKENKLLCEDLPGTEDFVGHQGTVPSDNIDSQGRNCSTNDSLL
Chain of Bradykinin B1 (P46663 whole entry): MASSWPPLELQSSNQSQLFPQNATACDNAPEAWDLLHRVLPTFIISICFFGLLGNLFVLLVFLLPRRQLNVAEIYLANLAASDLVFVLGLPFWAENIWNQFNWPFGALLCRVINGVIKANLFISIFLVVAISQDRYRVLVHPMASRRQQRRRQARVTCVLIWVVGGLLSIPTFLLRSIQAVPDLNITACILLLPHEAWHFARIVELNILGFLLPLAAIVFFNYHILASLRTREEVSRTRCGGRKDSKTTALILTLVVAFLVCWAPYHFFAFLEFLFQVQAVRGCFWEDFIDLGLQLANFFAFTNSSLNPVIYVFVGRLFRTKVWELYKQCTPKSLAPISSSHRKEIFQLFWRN
Chain of Dopamine D3 (P35462 whole entry): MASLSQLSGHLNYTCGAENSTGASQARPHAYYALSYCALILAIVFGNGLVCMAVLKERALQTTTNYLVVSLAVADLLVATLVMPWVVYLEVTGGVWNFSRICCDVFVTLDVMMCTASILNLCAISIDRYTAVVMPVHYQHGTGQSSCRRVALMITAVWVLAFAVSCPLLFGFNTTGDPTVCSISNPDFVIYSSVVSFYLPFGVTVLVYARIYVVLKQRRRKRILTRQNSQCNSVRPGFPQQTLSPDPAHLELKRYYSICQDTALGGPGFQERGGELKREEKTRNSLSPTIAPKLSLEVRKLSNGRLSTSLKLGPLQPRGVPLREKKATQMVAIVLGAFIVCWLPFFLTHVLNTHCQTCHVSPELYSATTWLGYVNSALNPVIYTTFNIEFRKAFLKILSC
Chain of Dopamine D4.4 (P21917 whole entry): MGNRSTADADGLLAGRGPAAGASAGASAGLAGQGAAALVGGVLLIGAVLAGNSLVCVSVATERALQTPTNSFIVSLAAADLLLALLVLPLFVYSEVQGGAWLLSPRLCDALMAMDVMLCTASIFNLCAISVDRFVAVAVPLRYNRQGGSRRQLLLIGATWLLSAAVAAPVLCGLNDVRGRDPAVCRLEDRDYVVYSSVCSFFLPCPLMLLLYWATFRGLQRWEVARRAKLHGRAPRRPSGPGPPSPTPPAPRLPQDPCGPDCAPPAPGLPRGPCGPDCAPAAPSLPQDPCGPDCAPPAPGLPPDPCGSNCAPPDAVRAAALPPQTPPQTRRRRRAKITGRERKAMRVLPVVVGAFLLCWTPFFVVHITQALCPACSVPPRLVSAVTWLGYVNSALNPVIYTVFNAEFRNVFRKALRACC
Chain of Adrenergic β1 (P08588 whole entry): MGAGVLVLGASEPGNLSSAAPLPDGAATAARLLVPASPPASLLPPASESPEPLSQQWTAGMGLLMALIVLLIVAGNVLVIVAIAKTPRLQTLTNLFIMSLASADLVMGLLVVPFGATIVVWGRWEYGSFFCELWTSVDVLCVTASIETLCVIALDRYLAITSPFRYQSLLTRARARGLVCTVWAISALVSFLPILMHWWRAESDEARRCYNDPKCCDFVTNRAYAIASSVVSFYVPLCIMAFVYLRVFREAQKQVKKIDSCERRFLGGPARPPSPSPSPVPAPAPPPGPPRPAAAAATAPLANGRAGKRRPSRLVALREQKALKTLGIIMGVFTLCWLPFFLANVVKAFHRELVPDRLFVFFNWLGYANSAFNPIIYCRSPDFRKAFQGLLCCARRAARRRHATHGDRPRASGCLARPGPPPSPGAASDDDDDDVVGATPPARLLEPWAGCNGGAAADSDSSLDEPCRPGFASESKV
Chain of Histamine H1 (P35367 whole entry): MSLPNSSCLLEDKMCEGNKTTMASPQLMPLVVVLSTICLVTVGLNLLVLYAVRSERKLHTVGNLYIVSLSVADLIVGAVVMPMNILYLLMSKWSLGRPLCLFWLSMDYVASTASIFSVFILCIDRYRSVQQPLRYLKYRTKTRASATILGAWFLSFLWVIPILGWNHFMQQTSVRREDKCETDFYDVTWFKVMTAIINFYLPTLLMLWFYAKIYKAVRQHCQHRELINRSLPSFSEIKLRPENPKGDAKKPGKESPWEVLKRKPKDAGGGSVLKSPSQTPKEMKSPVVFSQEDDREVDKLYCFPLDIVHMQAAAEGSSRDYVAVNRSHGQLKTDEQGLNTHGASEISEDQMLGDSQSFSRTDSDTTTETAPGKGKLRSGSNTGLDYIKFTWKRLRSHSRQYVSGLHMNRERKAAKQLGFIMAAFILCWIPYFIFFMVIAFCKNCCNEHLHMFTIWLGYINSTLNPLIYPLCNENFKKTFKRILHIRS
Chain of Dopamine D2S (P14416 1-414 isoform P14416-2): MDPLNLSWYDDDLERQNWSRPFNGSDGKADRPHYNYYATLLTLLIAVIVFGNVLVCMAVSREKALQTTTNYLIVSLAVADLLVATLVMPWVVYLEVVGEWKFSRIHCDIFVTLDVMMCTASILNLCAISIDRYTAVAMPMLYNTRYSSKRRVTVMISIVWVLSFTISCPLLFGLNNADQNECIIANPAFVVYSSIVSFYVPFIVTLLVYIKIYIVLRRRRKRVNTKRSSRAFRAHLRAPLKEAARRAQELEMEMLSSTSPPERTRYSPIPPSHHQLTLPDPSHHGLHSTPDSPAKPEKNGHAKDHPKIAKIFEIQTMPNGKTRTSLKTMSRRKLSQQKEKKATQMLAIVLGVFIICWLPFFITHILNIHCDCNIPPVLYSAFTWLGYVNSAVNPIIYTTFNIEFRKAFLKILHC
Chain of Serotonin (5-Hydroxytryptamine) 5-HT2B (P41595 whole entry): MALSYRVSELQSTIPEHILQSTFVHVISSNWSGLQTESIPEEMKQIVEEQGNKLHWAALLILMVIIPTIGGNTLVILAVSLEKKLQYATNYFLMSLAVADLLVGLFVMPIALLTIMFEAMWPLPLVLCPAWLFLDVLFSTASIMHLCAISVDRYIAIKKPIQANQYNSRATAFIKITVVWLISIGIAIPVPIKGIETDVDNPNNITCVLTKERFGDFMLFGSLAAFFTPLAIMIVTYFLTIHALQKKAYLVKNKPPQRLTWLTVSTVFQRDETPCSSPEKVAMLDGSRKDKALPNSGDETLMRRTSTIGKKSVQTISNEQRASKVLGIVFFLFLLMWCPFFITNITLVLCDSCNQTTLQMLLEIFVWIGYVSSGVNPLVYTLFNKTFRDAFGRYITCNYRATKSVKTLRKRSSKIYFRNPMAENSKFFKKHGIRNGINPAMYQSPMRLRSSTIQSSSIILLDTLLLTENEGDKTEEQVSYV
Chain of Endothelin ETB (P24530 27-442): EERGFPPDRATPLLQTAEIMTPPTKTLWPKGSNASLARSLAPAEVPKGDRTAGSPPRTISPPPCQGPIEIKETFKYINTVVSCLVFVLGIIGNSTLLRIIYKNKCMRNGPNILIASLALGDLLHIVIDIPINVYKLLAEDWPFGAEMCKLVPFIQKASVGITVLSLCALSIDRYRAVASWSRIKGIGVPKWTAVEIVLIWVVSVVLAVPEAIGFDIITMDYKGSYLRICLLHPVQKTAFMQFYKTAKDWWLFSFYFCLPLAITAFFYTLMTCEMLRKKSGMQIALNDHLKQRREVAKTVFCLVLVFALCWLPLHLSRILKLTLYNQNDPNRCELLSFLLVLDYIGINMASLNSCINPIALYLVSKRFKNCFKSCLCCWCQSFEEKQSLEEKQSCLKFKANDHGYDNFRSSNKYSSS

Cc1cc(Oc2cnn(C)c2)cc(C(=O)Nc2ccc(F)cn2)n1 [22iA]
inhibition at 10 µM [1]: 40% | CLp ([2]; Rat (SD), IV 1.0 mg/kg): 2.46 L/h/kg | MRT ([2]; Rat (SD), IV 1.0 mg/kg): 50.4 min | Vss ([2]; Rat (SD), IV 1.0 mg/kg): 2.0 L/kg | t1/2 ([2]; Rat (SD), IV 1.0 mg/kg): 44.4 min | AUC0-∞ ([2]; Rat (SD), PO 10.0 mg/kg): 1.32 µg·h/mL | Cmax ([2]; Rat (SD), PO 10.0 mg/kg): 0.402 µg/mL | Tmax ([2]; Rat (SD), PO 10.0 mg/kg): 117 min | %F ([2]; Rat (SD), PO 10.0 mg/kg, oral bioavailability): 43% | half-life ([2]; Sprague-Dawley, rat, plasma, intravenous, 1 mg/kg, rats, value as given in running text, read-out: elimination t1/2): ~45 min | bioavailability ([2]; Sprague-Dawley, rat, plasma, po, 10 mg/kg): 40% | IC50 (CYP 2C9): ≥ 30 µM | inhibition at 10 µM (Dopamine D1): -2% | inhibition at 10 µM (Histamine H2): -4% | inhibition at 10 µM (Cannabinoid CB1): 15% | inhibition at 10 µM (Dopamine D4.4): -9% | inhibition at 10 µM (Adrenergic β2): -5% | inhibition at 10 µM (Adenosine A1): 20% | inhibition at 10 µM (Adrenergic β1): -4% | inhibition at 10 µM (GABAB1A): 3% | inhibition at 10 µM (Dopamine D2S): -10% | inhibition at 10 µM (Bradykinin B1): 4% | inhibition at 10 µM (Estrogen Erα): 4% | inhibition at 10 µM (Histamine H1): 24% | inhibition at 10 µM (Histamine H3): 5% | inhibition at 10 µM (Endothelin ETB): -13% | inhibition at 10 µM (Dopamine D3): -6%
